# Experiments:
# [1] = tested on: HIV-1 BaL; assay: Anti-HIV-1 activity in activated PBMC, p24 ELISA; type: cell-based; conditions: activated PBMC infected with HIV-1 BaL, 5 days, mean ± SD
# Method: Activated PBMC were infected with HIV-1 BaL for 3 hours, washed, seeded into 96-well plates (250,000 cells/well) and incubated with serial dilutions of tested compounds for 5 days, at which point cell supernatants were collected and virus production was determined using commercial HIV-1 p24 ELISA (Beckman Coulter, Miami, Fla.).
# [2] = tested on: HIV-1 IIIB; assay: Anti-HIV-1 activity in MT-2 cells, virus-induced cytopathic effect (CellTiter-Glo); type: cell-based; conditions: MT-2 cells infected with HIV-1 IIIB, 5-day incubation; mean ± SD
# Method: MT-2 cells were maintained in RPMI-1640 medium supplemented with antibiotics and 10% fetal bovine serum (FBS). MT-2 cells were infected with HIV-1 IIIB at a multiplicity of infection (moi) of 0.01 and added to 96-well plates with serial dilutions of tested compounds at a density of 20,000 cells/well. […] Activity against NRTI-resistant mutants was determined in parallel with wild-type control virus and fold change in EC50 was calculated.
compound,measurement,setting,value
Nc1ncnc2c1ncn2[C@@H]1O[C@H](OCP(=O)(O)O)C=C1F [Parent Compound],EC50,[1],8.5 ± 7.7 µM
same,EC50,[2],10.6 ± 2.4 µM

# — US8951986B2, “Salts of HIV inhibitor compounds” (Gilead Sciences, Inc., priority 2008, dated 2015)
